For data set [1], the system named is metastatic prostate cancer cells PC3. Nature of the data set: Migration of PC3 cells with ectopic miR-708. Type of data set: cell-based, human. To be noted: ectopic expression of miR-708 in PC3.
The next data set concerns MDA-LM2 (LM2). Nature of the data set: Orthotopic MDA-LM2 tumor / pulmonary metastasis model. Type of data set: in vivo, mice. The method, then: For orthotopic injection, 1×10^6 viable MDA-MB-231, MDA-Cont, or MDA-miR-708 cells were injected into CB-17 SCID mice fat pads in a volume of 0.1 ml. Tumor growth and pulmonary metastases (following resection of primary tumor) were monitored by live animal bioluminescent imaging (Xenogen IVIS system) once per week.
Mice inoculated with firefly luciferase were anaesthetized and injected retro-orbitally with 75 mg/kg of D-luciferin (30 mg/mL in PBS). Images were taken with mice in a supine position using the Xenogen IVIS system coupled to Living Image acquisition and analysis software (Xenogen). For bioluminescence (BLI) plots, photon flux was calculated for each mouse by using a rectangular region of interest encompassing the thorax of the mouse.
Paraffin embedded sections (5 μm) were deparaffinized following standard protocols. […] Images were obtained with an Axiovert 40 CFL microscope coupled with Axioversion 4.8.2 software (Carl Zeiss). For nodule counting, lungs were perfused, isolated and OCT embedded and sectioned for immunohistochemical analysis. Cryosections (8 μm) were mounted on glass slides and stained with hematoxylin and eosin (H&E).
To measure number of CTC in blood, 100 μl of peripheral blood was collected from mice bearing orthotopic […] expressing MDA and MDA-mir-708 breast tumors. Total RNA was isolated and subjected to Taqman Q-PCR for GFP transgene. To convert quantitative-PCR data into number of CTCs, a standard curve was generated by serially diluting GFP+MDA tumor spiked into […] of normal wild type mouse blood.

The subject of another data set is CD44 3'-UTR. Nature of the data set: 3'-UTR dual luciferase assay. As to conditions: 293T cells, Renilla/Firefly ratio. In kind it is cell-based. The protocol:
(§1) The 3′-UTR of a gene of interest was amplified by PCR and cloned into a pmirGLO Dual-Luciferase miRNA Target Expression Vector (Promega). To express miRNA, synthetic premiRNA precursor for miR-708 and control scrambled miRNA were purchased from Applied Biosystems (Ambion). The miRNA precursor and pmirGLO Dual-Luciferase 3′-UTR vector were co-transfected into […] cells using the siPORT NeoFX Transfection Agent following manufacturer's instructions (Ambion). Cells were harvested and lysed at 48 hr post-transfection. The interaction between miR-708 and target 3′-UTR was measured by Dual-luciferase assay system (Promega).

In another data set the test system is Gon4l 3'-UTR. Nature of the data set: 3'-UTR dual luciferase assay. Type of data set: cell-based. As to conditions: 293T cells, Renilla/Firefly ratio. The protocol: as §1
A further data set relates to Ntrk2 3'-UTR. Kind of data set: 3'-UTR dual luciferase assay. Type of data set: cell-based. To be noted: 293T cells, Renilla/Firefly ratio. The method, then: as §1
A further data set deals with intracellular Ca^2+. Nature of the data set: Intracellular calcium measurements (Fura-2, ATP stimulation). Type of data set: cell-based, human. The protocol:
MDA-control, MDA-miR-708, and MDA-miR-708-Nnat-mut cells were grown on coverslips and used 2-3 days after plating. Cells were loaded with […] Fura-2 (Molecular Probes), a membrane-permeable Ca^2+-indicator dye, at 37° C. for 30 min. Cells were then washed and incubated in HEPES-buffered Na^+-Ringer's solution (140 mM NaCl, 5 mM KCl, 10 mM HEPES, 2 mM CaCl2, and 1 mM MgCl2, pH 7.4). Individual vials (50 mg) of the acetoxymethyl derivative of Fura-2 (Invitrogen/Molecular Probes) were stored dry at 0° C. and reconstituted in dimethyl sulfoxide at a concentration of 10 mM for each experiment. At the concentrations used, dimethyl sulfoxide had no effect on any preparation in these studies. The coverslip with the dye-loaded cells was attached to the bottom of a flow-through superfusion chamber and mounted on the stage of an inverted epifluorescence microscope (Nikon Eclipse TE-2000). The cells in the chamber were superfused and maintained at 37° C. as previously described (O'Connor and Silver, 2007). Cells were first visualized under transmitted light with a Nikon CF Fluor oil immersion objective (X40/1.3 numerical aperture) before the start of the fluorescence measurements. Images were obtained at 340 nm and 380 nm excitation and at 510 nm emission wavelengths. The ratio was determined from the images at 340 nm and 380 nm. The imaging workstation was controlled with the MetaFluor software package (Universal Imaging). Cells in the experimental field of view were analyzed singularly and independently from their neighbors. Results are expressed as means±SEM, where n refers to the total number of individually analyzed cells.
The inventors hypothesized that miR-708-mediated targeting of Nnat may lead to impaired regulation of intracellular Ca^2+. This would explain the inhibitory effect on the migratory phenotype of metastatic tumor cells observed earlier (see, e.g., FIG. 1E). To test this hypothesis, MDA and MDA-miR-708 cells were loaded with the intracellular calcium indicator, Fura-2, and the 340/380 ratios were monitored in the absence and presence of exogenous ATP. ATP binds ATP receptors on the cell surface, resulting in the cleavage of PIP2 into IP3 and DAG. IP3 binds IP3 receptors on the endoplasmic reticulum membrane, and releases ionized calcium from the endoplasmic reticulum (Vandewalle et al., 1994), (Berridge et al., 2003; Swanson et al., 1998). Thus, ATP-stimulated calcium release from endoplasmic reticulum was used to evaluate the consequence of Nnat suppression by miR-708.
A general note: Calcium flux is commonly read through the fluorescence of an indicator in the cells.

A further data set has as its system cortical actin. Kind of data set: Immunostaining for vinculin and F-actin (phalloidin). Type of data set: cell-based, human. To be noted: MDA-miR-708 cells. The protocol: For immunofluorescence staining, cells were fixed overnight in paraformaldehyde before incubation with primary antibodies; mouse-monoclonal VINCULIN (Cat#V9131, Sigma-Aldrich, 1:400) and rabbit-polyclonal phosphorylated FAK (pS910, Cat #44596G, Invitrogen, 1:1000). Alexa Flour 568 or Alexa Fluor 647 anti-mouse IgG, and Alexa Fluor 647 anti-rabbit IgG (Invitrogen), were used for visualization. Following incubation with secondary antibodies the tissue sections were treated with Rhodamine Phalloidin (Cat# R415, Invitrogen). Fluorescent images were obtained using a computerized Zeiss fluorescent microscope (Axiovert 200M), fitted with an apotome and an HRM camera. Images were analyzed using Axiovision 4.6 software (Carl Zeiss Inc.).

Entries after “also recorded” stand apart in the source; their conditions may differ.

On to “miR-708: microRNA, mature sequence 5'-AAGGAGCUUACAAUCUAGCUGGG-3' (SEQ ID NO: 2); expressed from lentiviral vector or used as synthetic precursor”, for which the migration result in data set [1] is “suppressed migration”. In addition, in the data set on MDA-LM2 (LM2) (LM2 cells over-expressing miR-708, day 60), the primary tumor growth result is “remained unperturbed”. In addition, the “lung metastases (photon flux)” value with MDA-LM2 (LM2) (LM2 cells over-expressing miR-708, day 67) is on record as “significantly lower photon flux; also recorded: pronounced reduction”. For the same substance, the “number of lung metastatic nodules” value in the data set with MDA-LM2 (LM2) (MDA-LM2-miR-708 vs controls, H&E sections) is listed as “reduced numbers”. The “number of circulating tumor cells (CTCs)” value with MDA-LM2 (LM2) (peripheral blood of MDA-LM2-miR-708 tumor bearing mice vs controls) was “reduced number”. Besides, the “primary tumor size measurements” value with MDA-LM2 (LM2) (weight over time, FIG. 7H) is on record as “unaffected”. For the same substance, the “repression of 3'-UTR luciferase reporter” value in the data set on CD44 3'-UTR, in the data set with Gon4l 3'-UTR and in the data set with Ntrk2 3'-UTR was “significant repression” in each case. In the data set on intracellular Ca^2+ (MDA cells expressing miR-708 vs MDA), the “regulation of intracellular Ca^2+ after ATP” value is listed as “attenuated regulation”. Moreover, in the data set on intracellular Ca^2+ (MDA-miR-708 cells stimulated with ATP, control slope 0.72), the “slope, initial rate of calcium regulation back to baseline (representative trace)” value was found to be 0.3 ratio/min. In addition, the “pre-ATP stimulation (basal) ratio” value in the data set on intracellular Ca^2+ (MDA-miR-708 cells, mean±SEM) was found to be 0.97±0.01. Further, the “peak calcium response due to ATP stimulation (340/380 ratio)” value with intracellular Ca^2+ (MDA-miR-708 cells, mean±SEM, n=107) was determined as 1.77±0.06. In addition, in the data set on intracellular Ca^2+ (MDA-miR-708 cells, n=105, control 0.52±0.03), the “initial rate of calcium regulation back to baseline” value stood at 0.33±0.02. The cortical actin phenotype entry in the data set with cortical actin is reported as “thick bands of cortical actin rings”.

For the origin of these results see patent publication US9512425B2, “Inhibiting migration of cancer cells” (Cornell University, priority 2012, dated 2016).
